According to ChEMBL document CHEMBL5614434, “A Lysosome-Targeting hNEU1 Inhibitor Treats Myocardial Infarction: A Potential Therapeutic Breakthrough” (J Med Chem, 2024):
Calls of active or inactive are those of the source. The rule behind the calls is not given here.

What was measured:
[1] = test system: H9c2; experiment: Cytotoxicity against rat H9c2 cells assessed as cell viability at 0.001 to 50 uM under normoxia condition by CCK-8 method; assay type: toxicity, cell-based; settings: h9c2, 50 µM, dose 0.001-50 µM
[2] = test system: H9c2; experiment: Cytotoxicity against isoproterenol-induced rat H9c2 cells assessed as cell viability at 0.001 to 1 uM under normoxia condition by CCK-8 method; assay type: toxicity, cell-based; settings: h9c2, 1 µM, dose 0.001-1 µM
[3] = test system: H9c2; experiment: Induction of apoptosis in isoproterenol-induced rat H9c2 cells assessed as early apoptotic cells at 0.1 micromol/L by annexin V-FITC and PI staining based flow cytometry analysis (reference value: 10.37%); assay type: toxicity, cell-based; settings: h9c2, 0.1 µM, dose 0.1 µmol/L
[4] = test system: H9c2; experiment: Induction of apoptosis in isoproterenol-induced rat H9c2 cells assessed as late apoptotic cells at 0.1 micromol/L by annexin V-FITC and PI staining based flow cytometry analysis (reference value: 11.49%); assay type: toxicity, cell-based; settings: h9c2, 0.1 µM, dose 0.1 µmol/L
[5] = test system: H9c2; experiment: Induction of ATP production in isoproterenol-induced rat H9c2 cells at 0.1 micromol/L by fluorescence based analysis; assay type: functional; settings: dose 0.1 µmol/L
[6] = test system: H9c2; experiment: Inhibition of ROS production in isoproterenol-induced rat H9c2 cells assessed as reduction in DCF value at 0.1 uM by DCFH-DA staining based flow cytometry analysis (reference value: 371.9); assay type: functional
[7] = Drug uptake in lysosomes of rat H9c2 cells assessed as time required for compound concentration in lysosomes to exceed the cell lysates by HPLC analysis; assay type: ADME, subcellular, Lysosome
[8] = test system: H9c2; experiment: Induction of autophagy in isoproterenol-induced rat H9c2 cells assessed as increase in LC3-I to LC3-II conversion by confocal microscopy based analysis; assay type: functional, cell-based
[9] = test system: H9c2; experiment: Induction of autophagy in isoproterenol-induced rat H9c2 cells assessed as downregulation of PARP1 expression by Western blot analysis; assay type: functional, cell-based
[10] = test system: H9c2; experiment: Induction of autophagy in isoproterenol-induced rat H9c2 cells assessed as downregulation of P62 expression by Western blot analysis; assay type: functional, cell-based
[11] = test system: H9c2; experiment: Induction of autophagy in isoproterenol-induced rat H9c2 cells transfected with GFP-tagged LC3 assessed as increase in number of green fluorescence by confocal microscopy analysis; assay type: functional, cell-based
[12] = test system: H9c2; experiment: Upregulation of cytochrome-c level in isoproterenol-induced rat H9c2 cells at 0.01 to 1 uM by Western blot analysis; assay type: functional, cell-based; settings: dose 0.01-1 µM
[13] = test system: H9c2; experiment: Upregulation of Ho-1 level in isoproterenol-induced rat H9c2 cells at 0.01 to 1 uM by Western blot analysis; assay type: functional, cell-based; settings: dose 0.01-1 µM
[14] = test system: H9c2; experiment: Downregulation of mTORC1 level in isoproterenol-induced rat H9c2 cells by Western blot analysis; assay type: functional, cell-based; settings: dose 0.01-1 µM
[15] = Metabolic stability in mouse liver microsomes assessed as half life measured upto 60 mins in presence of NADPH regenerating system by LC-MS/MS analysis; assay type: ADME, Microsome
[16] = Metabolic stability in mouse liver microsomes assessed as clearance measured upto 60 mins in presence of NADPH regenerating system by LC-MS/MS analysis; assay type: ADME, Microsome; settings: read-out: CLH
[17] = Metabolic stability in mouse liver microsomes assessed as parent compound remaining measured after 0.5 mins in presence of NADPH regenerating system by LC-MS/MS analysis; assay type: ADME, Microsome; settings: read-out: Stability
[18] = Metabolic stability in mouse liver microsomes assessed as parent compound remaining measured after 15 mins in presence of NADPH regenerating system by LC-MS/MS analysis; assay type: ADME, Microsome; settings: read-out: Stability
[19] = Metabolic stability in mouse liver microsomes assessed as parent compound remaining measured after 30 mins in presence of NADPH regenerating system by LC-MS/MS analysis; assay type: ADME, Microsome; settings: read-out: Stability
[20] = Metabolic stability in mouse liver microsomes assessed as parent compound remaining measured after 45 mins in presence of NADPH regenerating system by LC-MS/MS analysis; assay type: ADME, Microsome; settings: read-out: Stability
[21] = Metabolic stability in mouse liver microsomes assessed as parent compound remaining measured after 60 mins in presence of NADPH regenerating system by LC-MS/MS analysis; assay type: ADME, Microsome; settings: read-out: Stability
[22] = Metabolic stability in mouse liver microsomes assessed as parent compound remaining measured after 0.5 mins in absence of NADPH regenerating system by LC-MS/MS analysis; assay type: ADME, Microsome; settings: read-out: Stability
[23] = Metabolic stability in mouse liver microsomes assessed as parent compound remaining measured after 15 mins in absence of NADPH regenerating system by LC-MS/MS analysis; assay type: ADME, Microsome; settings: read-out: Stability
[24] = Metabolic stability in mouse liver microsomes assessed as parent compound remaining measured after 30 mins in absence of NADPH regenerating system by LC-MS/MS analysis; assay type: ADME, Microsome; settings: read-out: Stability
[25] = Metabolic stability in mouse liver microsomes assessed as parent compound remaining measured after 45 mins in absence of NADPH regenerating system by LC-MS/MS analysis; assay type: ADME, Microsome; settings: read-out: Stability
[26] = Metabolic stability in mouse liver microsomes assessed as parent compound remaining measured after 60 mins in absence of NADPH regenerating system by LC-MS/MS analysis; assay type: ADME, Microsome; settings: read-out: Stability
[27] = Half life in male C57/6J mouse at 15 mg/kg, ip measured upto 24 hrs by LC-MS/MS analysis; assay type: ADME, organism-based; settings: in vivo
[28] = Tmax in male C57/6J mouse at 15 mg/kg, ip measured upto 24 hrs by LC-MS/MS analysis; assay type: ADME, organism-based; settings: in vivo
[29] = Cmax in male C57/6J mouse at 15 mg/kg, ip measured upto 24 hrs by LC-MS/MS analysis; assay type: ADME, organism-based; settings: in vivo
[30] = AUClast in male C57/6J mouse at 15 mg/kg, ip measured upto 24 hrs by LC-MS/MS analysis; assay type: ADME, organism-based; settings: in vivo
[31] = AUC infinity in male C57/6J mouse at 15 mg/kg, ip measured upto 24 hrs by LC-MS/MS analysis; assay type: ADME, organism-based; settings: in vivo
[32] = Observed MRT(infinity) in male C57/6J mouse at 15 mg/kg, ip measured upto 24 hrs by LC-MS/MS analysis; assay type: ADME, organism-based; settings: in vivo
[33] = Dose normalized AUClast in male C57/6J mouse at 15 mg/kg, ip measured upto 24 hrs by LC-MS/MS analysis; assay type: ADME, organism-based; settings: in vivo
[34] = Apparent volume of distribution during terminal phase in male C57/6J mouse at 15 mg/kg, ip measured upto 24 hrs by LC-MS/MS analysis; assay type: ADME, organism-based; settings: in vivo, read-out: Vz/F
[35] = Apparent […] clearance in male C57/6J mouse at 15 mg/kg, ip measured upto 24 hrs by LC-MS/MS analysis; assay type: ADME, organism-based; settings: in vivo
[36] = Toxicity in isoproterenol-induced male C57/6J mouse model assessed as recovery of growth rate at 15 mg/kg, ip pretreated with isoproterenol for 3 days followed by compound addition and measured after 3 days; assay type: organism-based; settings: in vivo, 72 h, time 3 day
[37] = test system: Mus musculus; experiment: Cardioprotective activity against isoproterenol-induced myocardial injury in C57/6J mouse model assessed as reduction in cardiac swelling size at 15 mg/kg, ip pretreated with isoproterenol for 3 days followed by compound addition and measured after 3 days (reference value: 5.15 millimeter); assay type: functional; settings: time 3 day
[38] = test system: Mus musculus; experiment: Cardioprotective activity against isoproterenol-induced myocardial injury in C57/6J mouse model assessed as decrease in heart weight ratio at 15 mg/kg, ip pretreated with isoproterenol for 3 days followed by compound addition and measured after 3 days (reference value: 0.56 %); assay type: functional; parameters: scale not given: the % may be the effect or the level left; settings: time 3 day
[39] = test system: Mus musculus; experiment: Cardioprotective activity against isoproterenol-induced myocardial injury in C57/6J mouse model assessed as reduction in neutrophil ratio at 15 mg/kg, ip pretreated with isoproterenol for 3 days followed by compound addition and measured after 3 days; assay type: functional, organism-based; settings: time 3.0 day
[40] = test system: Mus musculus; experiment: Cardioprotective activity against isoproterenol-induced myocardial injury in C57/6J mouse model assessed as reduction in neutrophil count at 15 mg/kg, ip pretreated with isoproterenol for 3 days followed by compound addition and measured after 3 days; assay type: functional, organism-based; settings: time 3.0 day
[41] = test system: Mus musculus; experiment: Cardioprotective activity against isoproterenol-induced myocardial injury in C57/6J mouse model assessed as reduction in eosinophil ratio at 15 mg/kg, ip pretreated with isoproterenol for 3 days followed by compound addition and measured after 3 days; assay type: functional, organism-based; settings: time 3.0 day
[42] = test system: Mus musculus; experiment: Cardioprotective activity against isoproterenol-induced myocardial injury in C57/6J mouse model assessed as reduction in eosinophil count at 15 mg/kg, ip pretreated with isoproterenol for 3 days followed by compound addition and measured after 3 days; assay type: functional, organism-based; settings: time 3.0 day
[43] = test system: Mus musculus; experiment: Cardioprotective activity against isoproterenol-induced myocardial injury in C57/6J mouse model assessed as appearance of clear cell boundaries in heart at 15 mg/kg, ip pretreated with isoproterenol for 3 days followed by compound addition and measured after 3 days by H and E staining based analysis; assay type: functional, organism-based; settings: time 3.0 day
[44] = test system: Mus musculus; experiment: Cardioprotective activity against isoproterenol-induced myocardial injury in C57/6J mouse model assessed as decrease in pericardial thickness at 15 mg/kg, ip pretreated with isoproterenol for 3 days followed by compound addition and measured after 3 days by H and E staining based analysis; assay type: functional, organism-based; settings: time 3.0 day
[45] = test system: Mus musculus; experiment: Cardioprotective activity against isoproterenol-induced myocardial injury in C57/6J mouse model assessed as inhibition of collagen fiber proliferation at 15 mg/kg, ip pretreated with isoproterenol for 3 days followed by compound addition and measured after 3 days by masson staining based analysis; assay type: functional, organism-based; settings: time 3.0 day
[46] = test system: Mus musculus; experiment: Cardioprotective activity against isoproterenol-induced myocardial injury in C57/6J mouse model assessed as reduction in pericardial thickness at 15 mg/kg, ip pretreated with isoproterenol for 3 days followed by compound addition and measured after 3 days by masson staining based analysis; assay type: functional, organism-based; settings: time 3.0 day
[47] = test system: Mus musculus; experiment: Cardioprotective activity against isoproterenol-induced myocardial injury in C57/6J mouse model assessed as suppression of mTORC1 overexpression at 15 mg/kg, ip pretreated with isoproterenol for 3 days followed by compound addition and measured after 3 days by immunohistochemistry analysis; assay type: functional, organism-based; settings: time 3.0 day
[48] = test system: Mus musculus; experiment: Cardioprotective activity against isoproterenol-induced myocardial injury in C57/6J mouse model assessed as reduction in CK value in serum at 15 mg/kg, ip pretreated with isoproterenol for 3 days followed by compound addition and measured after 3 days by automatic biochemical analysis; assay type: functional, organism-based; settings: time 3.0 day
[49] = test system: Mus musculus; experiment: Cardioprotective activity against isoproterenol-induced myocardial injury in C57/6J mouse model assessed as decrease in CK-MB level in serum at 15 mg/kg, ip pretreated with isoproterenol for 3 days followed by compound addition and measured after 3 days by automatic biochemical analysis; assay type: functional, organism-based; settings: time 3.0 day
[50] = test system: Mus musculus; experiment: Cardioprotective activity against isoproterenol-induced myocardial injury in C57/6J mouse model assessed as effect on cTNI level in serum at 15 mg/kg, ip pretreated with isoproterenol for 3 days followed by compound addition and measured after 3 days by automatic biochemical analysis; assay type: functional, organism-based; settings: time 3.0 day
[51] = Permeability of compound in MDCK cells; assay type: ADME, cell-based, Canis lupus familiaris; settings: dog, read-out: permeability
[52] = Passive permeability in MDCK cells; assay type: ADME, cell-based, Canis lupus familiaris; settings: dog, read-out: permeability

## CCC(CC)O[C@@H]1C=C(C(=O)OCCN2CCOCC2)C[C@H](N)[C@H]1NC(C)=O
[1]
  Activity: Non-Toxic
[2]
  Activity: Non-Toxic
[3]
  Activity: 6.07%
[4]
  Activity: 0.15%
[5]
  Activity: 48.9 nmol/mg
[6]
  Activity: 203.6
[7]
  Time: 3.43 min
[8]
  Activity: Active
[9]
  Activity: Active
[10]
  Activity: Active
[11]
  Activity: Active
[12]
  Activity: Active
[13]
  Activity: Active
[14]
  Activity: Dose-Dependent Effect
[15]
  half-life: 3.07 h
[16]
  microsomal CLint: 7.53 µL/min/mg
[17]
  remaining at 0.5 min: 100%
[18]
  remaining at 0.25 h: 89.9%
[19]
  remaining at 0.5 h: 83.9%
[20]
  remaining at 0.75 h: 83%
[21]
  remaining at 1 h: 77.2%
[22]
  remaining at 0.5 min: 100%
[23]
  remaining at 0.25 h: 106%
[24]
  remaining at 0.5 h: 109%
[25]
  remaining at 0.75 h: 104%
[26]
  remaining at 1 h: 97.2%
[27]
  half-life: 2.37 h
[28]
  Tmax: 0.25 h
[29]
  Cmax: 2380 ng/mL
[30]
  AUC(0-t) at 24 h: 2080 ng·h/mL
[31]
  AUC(0-inf): 2100 ng·h/mL
[32]
  MRT inf: 1.01 h
[33]
  AUClast/dose: 139 kg·ng·h/mL/mg
[34]
  Vd/F: 24 L/kg
[35]
  CL/F: 120 mL/min/kg
[36]
  Activity: Non-Toxic
[37]
  Activity: 4.35 mm
[38]
  Activity: 0.46%
[39]
  Activity: Active
[40]
  Activity: Active
[41]
  Activity: Active
[42]
  Activity: Active
[43]
  Activity: Active
[44]
  Activity: Active
[45]
  Activity: Active
[46]
  Activity: Active
[47]
  Activity: Active
[48]
  Activity: Active
[49]
  Activity: Active
[50]
  Activity: Active
[51]
  Papp: 44 ×10⁻⁶ cm/s
[52]
  Papp: > 20 ×10⁻⁶ cm/s
